Test results taken from patent US8404708B2, “Dual NK1/NK3 receptor antagonists” (Hoffmann-La Roche Inc., priority 2004, dated 2013).
Read-outs that look alike come from different tables or passages of the source.

How the values were obtained:
[1] = target: T1, Recombinant human NK3 (hNK3) receptor (Homo sapiens, UniProt P29371); test: NK3 receptor binding, [3H]SR142801 displacement, membrane preparations
T1 construct: expressed in transfected cells
T1 sequence (P29371 1-465): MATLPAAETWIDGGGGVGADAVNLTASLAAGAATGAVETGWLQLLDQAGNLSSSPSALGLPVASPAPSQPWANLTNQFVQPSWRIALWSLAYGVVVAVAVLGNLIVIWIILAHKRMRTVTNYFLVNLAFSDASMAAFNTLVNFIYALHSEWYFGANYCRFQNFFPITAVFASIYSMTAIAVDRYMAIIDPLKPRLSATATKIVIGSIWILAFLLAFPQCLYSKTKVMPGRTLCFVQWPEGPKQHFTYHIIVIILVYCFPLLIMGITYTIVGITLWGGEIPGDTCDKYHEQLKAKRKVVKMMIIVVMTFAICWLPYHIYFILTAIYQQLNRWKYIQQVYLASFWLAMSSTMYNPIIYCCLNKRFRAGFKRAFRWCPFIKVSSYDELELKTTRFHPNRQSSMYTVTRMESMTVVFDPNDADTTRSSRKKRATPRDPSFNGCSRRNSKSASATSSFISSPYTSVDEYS
Outline: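 Room-temperature, 90-min filtration binding assay using about 2.5 μg recombinant receptor membranes per well; separation on polyethyleneimine-treated glass-fibre (GF/C) filters and liquid scintillation read-out, with 10 μM SB222200 for nonspecific binding.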

human NK1 receptor = human NK1 receptor (Homo sapiens, UniProt P25103); test: NK1 receptor binding, [3H]substance P displacement, CHO cell membranes
[2] = second value of the cell pKi NK1/NK3, hNK3 receptor, [3H]SR142801
[3] = first value of the cell pKi NK1/NK3, human NK1 receptor, [3H]substance P
[4] = second value of the cell NK1/NK3, read-out: pKi NK3 (converted)
[5] = first value of the cell NK1/NK3, read-out: pKi NK1 (converted)

human NK1 receptor, sequence (P25103 whole entry): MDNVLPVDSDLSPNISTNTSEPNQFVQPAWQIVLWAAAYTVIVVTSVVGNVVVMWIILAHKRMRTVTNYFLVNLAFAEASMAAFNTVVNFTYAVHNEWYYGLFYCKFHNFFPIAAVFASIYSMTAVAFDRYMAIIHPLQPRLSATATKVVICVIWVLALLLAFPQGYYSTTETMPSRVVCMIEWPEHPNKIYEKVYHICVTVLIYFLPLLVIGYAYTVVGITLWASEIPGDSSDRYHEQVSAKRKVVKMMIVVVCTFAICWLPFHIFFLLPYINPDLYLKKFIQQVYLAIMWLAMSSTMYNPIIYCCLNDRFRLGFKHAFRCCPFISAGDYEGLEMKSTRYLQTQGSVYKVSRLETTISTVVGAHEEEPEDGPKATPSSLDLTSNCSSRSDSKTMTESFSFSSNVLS

| SMILES | Ki [1, 2] [nM] | Ki (human NK1 receptor; [3]) [nM] | Ki [1, 4] [nM] | Ki (human NK1 receptor; [5]) [nM] | other results |
| --- | --- | --- | --- | --- | --- |
| Cc1ccccc1-c1cc(N2C[C@H](O)C[C@H]2CO)ncc1N(C)C(=O)C(C)(C)c1cc(Cl)cc(OC(F)F)c1 [Example 37, (2S,4R)-2-(3-Chloro-5-difluoromethoxy-phenyl)-N-[6-(4-hydroxy-2-hydroxymethyl-pyrrolidin-1-yl)-4-o-tolyl-pyridin-3-yl]-N-methyl-isobutyramide] | 0.617 | 1.2 | – | – | – |
| CN(C(=O)C(C)(C)c1cc(C(F)(F)F)cc(C(F)(F)F)c1)c1cnc(N2C[C@H](O)C[C@H]2CO)cc1-c1ccccc1Br [Example 129, (2S,4R)-2-(3,5-Bis-trifluoromethyl-phenyl)-N-[4-(2-bromo-phenyl)-6-(4-hydroxy-2-hydroxymethyl-pyrrolidin-1-yl)-pyridin-3-yl]-N-methyl-isobutyramide] | 2.63 | 0.851 | – | – | – |
| Cc1ccc(F)cc1-c1cc(N2C[C@@H](O)C[C@H]2CO)ncc1N(C)C(=O)C(C)(C)c1cc(C(F)(F)F)cc(C(F)(F)F)c1 [Example 250, (2S,4S)-2-(3,5-Bis-trifluoromethyl-phenyl)-N-[4-(5-fluoro-2-methyl-phenyl)-6-(4-hydroxy-2-hydroxymethyl-pyrrolidin-1-yl)-pyridin-3-yl]-N-methyl-isobutyramide] | – | – | 2 | 1.95 | – |
| CN(C(=O)C(C)(C)c1cc(C(F)(F)F)cc(C(F)(F)F)c1)c1cnc(N(CCO)CCO)cc1-c1ccc(Cl)c(Cl)c1 [Example 87, N-[6-[Bis-(2-hydroxy-ethyl)-amino]-4-(3,4-dichloro-phenyl)-pyridin-3-yl]-2-(3,5-bis-trifluoromethyl-phenyl)-N-methyl-isobutyramide] | 9.55 | 1.58 | – | – | – |
| Cc1ccccc1-c1cc(N2CCS(=O)(=O)CC2CO)ncc1N(C)C(=O)C(C)(C)c1cc(C(F)(F)F)cc(C(F)(F)F)c1 (racemic) [Example 178, (RS)-2-(3,5-Bis-trifluoromethyl-phenyl)-N-[6-(3-hydroxymethyl-1,1-dioxo-1λ^6-thiomorpholin-4-yl)-4-o-tolyl-pyridin-3-yl]-N-methyl-isobutyramide] | 3.47 | 0.933 | – | – | – |
| Cc1cc(F)ccc1-c1cc(N2[C@@H](CO)CC[C@@H]2CO)ncc1N(C)C(=O)C(C)(C)c1cc(C(F)(F)F)cc(C(F)(F)F)c1 [Example 199, (2R,5R)-N-[6-(2,5-Bis-hydroxymethyl-pyrrolidin-1-yl)-4-(4-fluoro-2-methyl-phenyl)-pyridin-3-yl]-2-(3,5-bis-trifluoromethyl-phenyl)-N-methyl-isobutyramide] | 15.5 | 2.51 | – | – | – |
| Cc1ccncc1-c1cc(N(CCO)CCO)ncc1N(C)C(=O)C(C)(C)c1cc(C(F)(F)F)cc(C(F)(F)F)c1 [Example 293, N-{6′-[Bis-(2-hydroxy-ethyl)-amino]-4-methyl-[3,4′]bipyridinyl-3′-yl}-2-(3,5-bis-trifluoromethyl-phenyl)-N-methyl-isobutyramide] | – | – | 1.62 | 3.8 | – |
| Cc1cc(C)cc(C(C)(C)C(=O)N(C)c2cnc(N3CCC[C@H]3CO)cc2-c2ccc(F)cc2C)c1 [Example 32, (S)-(3,5-Dimethyl-phenyl)-N-[4-(4-fluoro-2-methyl-phenyl)-6-(2-hydroxymethyl-pyrrolidin-1-yl)-pyridin-3-yl]-N-methyl-isobutyramide] | – | – | – | – | pKi NK3 [1, 2]: 8.52; pKi NK1 (human NK1 receptor; [3]): 8.51 |
| CN(C(=O)C(C)(C)c1cc(C(F)(F)F)cc(C(F)(F)F)c1)c1cnc(N2C[C@H](O)C[C@H]2CO)cc1-c1cc(F)cc(F)c1 [Example 208, (2S,4R)-2-(3,5-Bis-trifluoromethyl-phenyl)-N-[4-(3,5-difluoro-phenyl)-6-(4-hydroxy-2-hydroxymethyl-pyrrolidin-1-yl)-pyridin-3-yl]-N-methyl-isobutyramide] | – | – | 6.17 | 1.35 | – |
| Cc1ccccc1-c1cc(N2C[C@H](O)C[C@H]2CO)ncc1N(C)C(=O)C(C)(C)c1cc(F)cc(F)c1 [Example 16, (2S,4R)-2-(3,5-Difluoro-phenyl)-N-[6-(4-hydroxy-2-hydroxymethyl-pyrrolidin-1-yl)-4-o-tolyl-pyridin-3-yl]-N-methyl-isobutyramide] | 4.07 | 2.63 | – | – | – |
| CC(=O)N(C)[C@H]1CCN(c2cc(-c3ccc(F)cc3C)c(N(C)C(=O)C(C)(C)c3cc(C(F)(F)F)cc(C(F)(F)F)c3)cn2)C1 [Example 107, (S)-N-[6-[3-(Acetyl-methyl-amino)-pyrrolidin-1-yl]-4-(4-fluoro-2-methyl-phenyl)-pyridin-3-yl]-2-(3,5-bis-trifluoromethyl-phenyl)-N-methyl-isobutyramide] | 11.7 | 2.34 | – | – | – |
| CN(C(=O)C(C)(C)c1cc(C(F)(F)F)cc(C(F)(F)F)c1)c1cnc(N2C[C@H](O)C[C@H]2CO)cc1-c1ncccc1Cl [Example 234, (2S,4R)-2-(3,5-Bis-trifluoromethyl-phenyl)-N-[3-chloro-6′-(4-hydroxy-2-hydroxymethyl-pyrrolidin-1-yl)-[2,4′]bipyridinyl-3′-yl]-N-methyl-isobutyramide] | – | – | 11 | 2.19 | – |
| Cc1ccc(-c2cc(N3C[C@H](O)C[C@H]3CO)ncc2N(C)C(=O)C(C)(C)c2cc(C(F)(F)F)cc(C(F)(F)F)c2)cc1 [Example 200, (2S,4R)-2-(3,5-Bis-trifluoromethyl-phenyl)-N-[6-(4-hydroxy-2-hydroxymethyl-pyrrolidin-1-yl)-4-p-tolyl-pyridin-3-yl]-N-methyl-isobutyramide] | 18.2 | 2.34 | – | – | – |
| Cc1cc(F)ccc1-c1cc(N2CC[C@H](N(C)S(C)(=O)=O)C2)ncc1N(C)C(=O)C(C)(C)c1cc(C(F)(F)F)cc(C(F)(F)F)c1 [Example 105, (S)-2-(3,5-Bis-trifluoromethyl-phenyl)-N-{4-(4-fluoro-2-methyl-phenyl)-6-[3-(methanesulfonyl-methyl-amino)-pyrrolidin-1-yl]-pyridin-3-yl}-N-methyl-isobutyramide] | 5.25 | 1.02 | – | – | – |
| CN(C(=O)C(C)(C)c1cc(C(F)(F)F)cc(C(F)(F)F)c1)c1cnc(N2C[C@H](O)C[C@H]2CO)cc1-c1ccc(F)cc1C=O [Example 222, (2S,4R)-2-(3,5-Bis-trifluoromethyl-phenyl)-N-[4-(4-fluoro-2-formyl-phenyl)-6-(4-hydroxy-2-hydroxymethyl-pyrrolidin-1-yl)-pyridin-3-yl]-N-methyl-isobutyramide] | – | – | 1.02 | 1.05 | – |
| CN(C(=O)C(C)(C)c1cc(C(F)(F)F)cc(C(F)(F)F)c1)c1cnc(N2CCC[C@H]2CO)cc1-c1ccc(Cl)cc1Cl [Example 283, (S)-2-(3,5-Bis-trifluoromethyl-phenyl)-N-[4-(2,4-dichloro-phenyl)-6-(2-hydroxymethyl-pyrrolidin-1-yl)-pyridin-3-yl]-N-methyl-isobutyramide] | – | – | 1.48 | 2.82 | – |
| C[C@@H](O)CNc1cc(-c2ccccc2Cl)c(N(C)C(=O)C(C)(C)c2cc(C(F)(F)F)cc(C(F)(F)F)c2)cn1 [Example 73, (R)-2-(3,5-Bis-trifluoromethyl-phenyl)-N-[4-(2-chloro-phenyl)-6-(2-hydroxy-propylamino)-pyridin-3-yl]-N-methyl-isobutyramide] | 7.41 | 0.871 | – | – | – |
| Cc1cc(F)ccc1-c1cc(N2CCC[C@H]2CO)ncc1N(C)C(=O)C(C)(C)c1cc(F)cc(C(F)(F)F)c1 [Example 24, (S)-N-[4-(4-Fluoro-2-methyl-phenyl)-6-(2-hydroxymethyl-pyrrolidin-1-yl)-pyridin-3-yl]-2-(3-fluoro-5-trifluoromethyl-phenyl)-N-methyl-isobutyramide] | 0.891 | 1.32 | – | – | – |
